This passage reports GI50 and TGI results from PubChem BioAssay (NCI).

Structures are written as SMILES.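 48-hour exposure; five concentrations; linearly interpolated endpoints. GI50 marks 50% less growth. TGI denotes the concentration required for complete inhibition of growth.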 Where only a bound is given, the exact number is not on record here.

Among the test systems are DLD-1 colon; HOP-18 NSCLC; LXFL 529 NSCLC; MDA-N; XF 498 CNS; RXF-631 renal; DMS 114 small cell lung; SNB-78 CNS; M19-MEL melanoma.
Common to all, as to experiment: NCI-60 cell line screen, 48 h

With `C1C[OH+]CCNCC[OH+]CC[OH+]CCN1.N.[Cl-].[Pt+4]`, the results for the GI50 with DLD-1 colon, in the assay on HOP-18 NSCLC and in the assay with LXFL 529 NSCLC were 46.1 µM, 37.5 µM and above 100 µM, respectively. Besides, the TGI in the assay with DLD-1 colon, in the assay with HOP-18 NSCLC and in the assay with LXFL 529 NSCLC was above 100 µM each time.

For `FC(F)(F)c1cc(NC(=S)N2c3ccccc3-n3cccc3C2c2cccnc2)cc(C(F)(F)F)c1` (stereo not given), in the assay on MDA-N, the GI50 is 11.6 µM and the TGI came out at 32.5 µM.

For the compound `O=C(O)CN1C(=O)CN=C(c2ccccn2)c2cc(Cl)ccc21`, the TGI in the assay with MDA-N was above 100 µM.

Consider `CO/C=C(\Br)c1ccc2c(c1)OCO2`, for which the TGI with XF 498 CNS, in the assay on RXF-631 renal, with DMS 114 small cell lung, with SNB-78 CNS, in the assay with LXFL 529 NSCLC and with M19-MEL melanoma was above 100 µM in each case.

Turning to `C[C@]12CCc3nonc3C1CC[C@@H]1C2CC[C@@]2(C)C1CC[C@@H]2O` (stereo not given in full), the TGI with XF 498 CNS, in the assay on DLD-1 colon, in the assay with RXF-631 renal, in the assay on DMS 114 small cell lung, in the assay on HOP-18 NSCLC and in the assay on SNB-78 CNS was above 100 µM in each case. Besides, the TGI with LXFL 529 NSCLC and with M19-MEL melanoma was above 100 µM throughout.

In turn, `Cc1ccc2[nH]c(O)c(N=Nc3ccccc3[N+](=O)[O-])c2c1` yielded a TGI in the assay with MDA-N above 100 µM.

`CCN(CC)CCCNc1n[n+]([O-])c2ccccc2[n+]1[O-]` returned a TGI in the assay on MDA-N above 100 µM.

Turning to `OCCN(CCO)c1nc(N2CCCCC2)c2nc(N(CCO)CCO)nc(N3CCCCC3)c2n1`, the TGI with MDA-N is above 100 µM.

For `COc1ccccc1NC(=O)CC(=O)n1nc(C)c(N=Nc2ccccc2Cl)c1C`, the TGI was above 100 µM with XF 498 CNS; above 100 µM with DLD-1 colon; above 31.6 µM with RXF-631 renal; above 100 µM in the assay with DMS 114 small cell lung; above 100 µM in the assay on HOP-18 NSCLC; above 31.6 µM in the assay on MDA-N. Also, the values for the TGI in the assay on SNB-78 CNS, with LXFL 529 NSCLC and in the assay with M19-MEL melanoma were 57.1 µM, above 100 µM and above 100 µM, respectively.

As for `NNc1nc2ccccc2o1`, the TGI in the assay on MDA-N was above 100 µM.

Compound `O=S(=O)(O)n1ccnc1` (tested in a mixture with another compound) showed a TGI with MDA-N above 100 µM.

For the compound `CCCCCCCC(=O)OCC1OC(n2cc(F)c(=O)[nH]c2=O)C(N)C(O)C1O` (stereo not given), the TGI with DLD-1 colon, with DMS 114 small cell lung, with HOP-18 NSCLC, with SNB-78 CNS, in the assay on LXFL 529 NSCLC and in the assay with M19-MEL melanoma was above 100 µM throughout.

Take `O=C1OC(c2ccc(Cl)cc2)=N/C1=C\c1ccccc1`: in the assay on MDA-N, the TGI is above 100 µM.

`N#CC1(N2CCCC2)CCC2(CC1)OCCO2`: the TGI in the assay on DMS 114 small cell lung is above 100 µM; with SNB-78 CNS, above 100 µM; in the assay with M19-MEL melanoma, above 10 µM.

For the compound `Cc1cc(=O)oc2cc3oc(N(C)c4ccccc4)nc(=O)c3cc12`, the TGI in the assay with MDA-N was above 100 µM.

Consider `C=CCOc1ccc(N)c([N+](=O)[O-])c1`, for which, in the assay with MDA-N, the TGI is above 100 µM.

On to `CC(=O)[CH-]C(C)=O.CC(=O)[CH-]C(C)=O.[Cl-].[O]=[V]`, for which the GI50 in the assay on XF 498 CNS was 17.8 µM; in the assay on DLD-1 colon, 34.6 µM; with DMS 114 small cell lung, 35.8 µM; in the assay with HOP-18 NSCLC, above 100 µM; with LXFL 529 NSCLC, 47.5 µM. In addition, the TGI with XF 498 CNS was 66 µM; in the assay on DLD-1 colon it was above 100 µM; in the assay on DMS 114 small cell lung it was above 100 µM; in the assay with HOP-18 NSCLC, above 100 µM; with LXFL 529 NSCLC it was above 100 µM.

As to `CCOC(=O)CNC(=O)OCc1ccccc1`, the TGI in the assay with XF 498 CNS, in the assay on DLD-1 colon, in the assay on RXF-631 renal, in the assay on DMS 114 small cell lung, in the assay on SNB-78 CNS and with LXFL 529 NSCLC was above 100 µM throughout. The same compound gave a TGI in the assay with M19-MEL melanoma above 100 µM.

`COc1cc(/C=C2\NC(=O)C3Cc4c(OC)c(C)c(OC)c(OC)c4C2N3C)c(OC)c(C)c1OC` (stereo not given): the TGI with XF 498 CNS, with DLD-1 colon, in the assay on RXF-631 renal, in the assay on DMS 114 small cell lung, in the assay on HOP-18 NSCLC and in the assay with SNB-78 CNS was above 100 µM throughout. Besides, the TGI in the assay with LXFL 529 NSCLC and in the assay on M19-MEL melanoma was above 100 µM in each case.

Regarding `CC1OC(CC(=O)O)Cc2c1c(O)c1c(O)cc(-c3cc(=O)c4c(=O)c5c(c(=O)c=4c3=O)CC(CC(=O)O)OC5C)c(O)c1c2O` (stereo not given), the TGI in the assay with XF 498 CNS is 34.5 µM; in the assay on DLD-1 colon, 26.4 µM; with DMS 114 small cell lung, 40 µM; in the assay on HOP-18 NSCLC it was 45.7 µM; in the assay on SNB-78 CNS, above 73 µM; in the assay on LXFL 529 NSCLC it was 22.8 µM. This compound yielded a TGI in the assay with M19-MEL melanoma of 49 µM. Moreover, the GI50 in the assay with MDA-N was 29.1 µM.

On to `N#CC(C(=O)CCC(=O)Nc1cccc(C(F)(F)F)c1)c1ccccc1` (stereo not given), for which the TGI in the assay with XF 498 CNS, with DLD-1 colon, in the assay on DMS 114 small cell lung, in the assay on SNB-78 CNS, with LXFL 529 NSCLC and with M19-MEL melanoma was above 100 µM each time.

Regarding `Cc1ccc(/C=N/NS(=O)(=O)c2ccccc2)cc1C`, the TGI in the assay on XF 498 CNS, in the assay on DLD-1 colon, in the assay with DMS 114 small cell lung, in the assay with HOP-18 NSCLC, with SNB-78 CNS and with LXFL 529 NSCLC was above 100 µM in each case. This compound came in with a TGI in the assay with M19-MEL melanoma above 100 µM.
